Test results reported in the supplement of paper PMC10307832.

What was measured:
Test in all cases: relative viability (nuclei count vs DMSO), 5 days (fraction); higher = more cells survive
NCI-H1975 = system: NCI-H1975
Procedure, shortened: (§1)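 One day after seeding in 1536-well plates, lung cancer cell lines were dosed by pin tool. Dosing was either single-drug or a fixed anchor-drug dose plus five library-drug doses (not always all listed) in √10 steps. After 5 days, nuclei were stained in one fix-and-stain step and counted on 4× images, and relative viability is the nuclei count of treated wells over that of vehicle wells, given as the median of duplicate plates.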

NCI-H1944 = system: NCI-H1944
Procedure, shortened: as §1

NCI-H2126 = system: NCI-H2126
Procedure, shortened: as §1

NCI-H1666 = system: NCI-H1666
Procedure, shortened: as §1

LCLC-97TM1 = system: LCLC-97TM1
Procedure, shortened: as §1

EMC-BAC-2 = system: EMC-BAC-2
Procedure, shortened: as §1

NCI-H1993 = system: NCI-H1993
Procedure, shortened: as §1

NCI-H1755 = system: NCI-H1755
Procedure, shortened: as §1

NCI-H2170 = system: NCI-H2170
Procedure, shortened: as §1

NCI-H520 = system: NCI-H520
Procedure, shortened: as §1

NCI-H1793 = system: NCI-H1793
Procedure, shortened: as §1

NCI-H2009 = system: NCI-H2009
Procedure, shortened: as §1

NCI-H460 = system: NCI-H460
Procedure, shortened: as §1

ABC-1 = system: ABC-1
Procedure, shortened: as §1

NCI-H727 = system: NCI-H727
Procedure, shortened: as §1

PC-3 [JPC-3] = system: PC-3 [JPC-3]
Procedure, shortened: as §1

NCI-H1355 = system: NCI-H1355
Procedure, shortened: as §1

NCI-H2347 = system: NCI-H2347
Procedure, shortened: as §1

SW 1573 = system: SW 1573
Procedure, shortened: as §1

PC-14 = system: PC-14
Procedure, shortened: as §1

SK-LU-1 = system: SK-LU-1
Procedure, shortened: as §1

NCI-H441 = system: NCI-H441
Procedure, shortened: as §1

NCI-H647 = system: NCI-H647
Procedure, shortened: as §1

O=c1[nH]c2ccccc2n1C1CCN(CCCC(c2ccc(F)cc2)c2ccc(F)cc2)CC1 [Pimozide] + CCNC(=O)c1noc(-c2cc(C(C)C)c(O)cc2O)c1-c1ccc(CN2CCOCC2)cc1 [Luminespib] (partner 0.01 µM)
relative viability (NCI-H1975; first compound 0.08 µM): 0.213
relative viability (NCI-H1975; first compound 0.253 µM): 0.337
relative viability (NCI-H1975; first compound 0.8 µM): 0.384
relative viability (NCI-H1975; first compound 2.53 µM): 0.239
relative viability (NCI-H1975; first compound 8 µM): 0.18
relative viability (NCI-H1944; first compound 0.08 µM): 0.634
relative viability (NCI-H1944; first compound 0.253 µM): 0.665
relative viability (NCI-H1944; first compound 0.8 µM): 0.644
relative viability (NCI-H1944; first compound 2.53 µM): 0.668
relative viability (NCI-H1944; first compound 8 µM): 0.719
relative viability (NCI-H2126; first compound 0.08 µM): 0.901
relative viability (NCI-H2126; first compound 0.253 µM): 0.889
relative viability (NCI-H2126; first compound 0.8 µM): 0.842
relative viability (NCI-H2126; first compound 2.53 µM): 0.877
relative viability (NCI-H2126; first compound 8 µM): 0.839
relative viability (NCI-H1666; first compound 0.08 µM): 0.922
relative viability (NCI-H1666; first compound 0.253 µM): 1.03
relative viability (NCI-H1666; first compound 0.8 µM): 0.979
relative viability (NCI-H1666; first compound 2.53 µM): 0.942
relative viability (NCI-H1666; first compound 8 µM): 0.932
relative viability (LCLC-97TM1; first compound 0.08 µM): 0.89
relative viability (LCLC-97TM1; first compound 0.253 µM): 0.689
relative viability (LCLC-97TM1; first compound 0.8 µM): 0.62
relative viability (LCLC-97TM1; first compound 2.53 µM): 0.632
relative viability (LCLC-97TM1; first compound 8 µM): 0.679
relative viability (EMC-BAC-2; first compound 0.08 µM): 1.13
relative viability (EMC-BAC-2; first compound 0.253 µM): 1.1
relative viability (EMC-BAC-2; first compound 0.8 µM): 1.18
relative viability (EMC-BAC-2; first compound 2.53 µM): 1.18
relative viability (EMC-BAC-2; first compound 8 µM): 1.16
relative viability (NCI-H1993; first compound 0.08 µM): 0.729
relative viability (NCI-H1993; first compound 0.253 µM): 0.809
relative viability (NCI-H1993; first compound 0.8 µM): 0.77
relative viability (NCI-H1993; first compound 2.53 µM): 0.79
relative viability (NCI-H1993; first compound 8 µM): 0.425
relative viability (NCI-H1755; first compound 0.08 µM): 0.433
relative viability (NCI-H1755; first compound 0.253 µM): 0.418
relative viability (NCI-H1755; first compound 0.8 µM): 0.373
relative viability (NCI-H1755; first compound 2.53 µM): 0.526
relative viability (NCI-H1755; first compound 8 µM): 0.476
relative viability (NCI-H2170; first compound 0.08 µM): 0.527
relative viability (NCI-H2170; first compound 0.253 µM): 0.73
relative viability (NCI-H2170; first compound 0.8 µM): 0.779
relative viability (NCI-H2170; first compound 2.53 µM): 0.624
relative viability (NCI-H2170; first compound 8 µM): 0.671
relative viability (NCI-H520; first compound 0.08 µM): 0.227
relative viability (NCI-H520; first compound 0.253 µM): 0.219
relative viability (NCI-H520; first compound 0.8 µM): 0.194
relative viability (NCI-H520; first compound 2.53 µM): 0.227
relative viability (NCI-H520; first compound 8 µM): 0.219
relative viability (NCI-H1793; first compound 0.253 µM): 0.166
relative viability (NCI-H1793; first compound 0.8 µM): 0.207
relative viability (NCI-H1793; first compound 2.53 µM): 0.169
relative viability (NCI-H1793; first compound 8 µM): 0.149
relative viability (NCI-H2009; first compound 0.08 µM): 0.984
relative viability (NCI-H2009; first compound 0.253 µM): 1.01
relative viability (NCI-H2009; first compound 0.8 µM): 0.981
relative viability (NCI-H2009; first compound 2.53 µM): 1.05
relative viability (NCI-H2009; first compound 8 µM): 0.842
relative viability (NCI-H460; first compound 0.08 µM): 0.0367
relative viability (NCI-H460; first compound 0.253 µM): 0.0252
relative viability (NCI-H460; first compound 0.8 µM): 0.0202
relative viability (NCI-H460; first compound 2.53 µM): 0.0243
relative viability (NCI-H460; first compound 8 µM): 0.0256
relative viability (ABC-1; first compound 0.08 µM): 0.75
relative viability (ABC-1; first compound 0.253 µM): 0.519
relative viability (ABC-1; first compound 0.8 µM): 0.367
relative viability (ABC-1; first compound 2.53 µM): 0.675
relative viability (ABC-1; first compound 8 µM): 0.433
relative viability (NCI-H727; first compound 0.08 µM): 0.321
relative viability (NCI-H727; first compound 0.253 µM): 0.3
relative viability (NCI-H727; first compound 0.8 µM): 0.297
relative viability (NCI-H727; first compound 2.53 µM): 0.593
relative viability (NCI-H727; first compound 8 µM): 0.25
relative viability (PC-3 [JPC-3]; first compound 0.08 µM): 0.402
relative viability (PC-3 [JPC-3]; first compound 0.253 µM): 0.714
relative viability (PC-3 [JPC-3]; first compound 0.8 µM): 0.699
relative viability (PC-3 [JPC-3]; first compound 2.53 µM): 0.723
relative viability (PC-3 [JPC-3]; first compound 8 µM): 0.599
relative viability (NCI-H1355; first compound 0.08 µM): 0.728
relative viability (NCI-H1355; first compound 0.253 µM): 0.63
relative viability (NCI-H1355; first compound 0.8 µM): 0.633
relative viability (NCI-H1355; first compound 2.53 µM): 0.557
relative viability (NCI-H1355; first compound 8 µM): 0.642
relative viability (NCI-H2347; first compound 0.253 µM): 0.3
relative viability (NCI-H2347; first compound 0.8 µM): 0.374
relative viability (NCI-H2347; first compound 2.53 µM): 0.582
relative viability (NCI-H2347; first compound 8 µM): 0.266
relative viability (SW 1573; first compound 0.08 µM): 0.214
relative viability (SW 1573; first compound 0.253 µM): 0.301
relative viability (SW 1573; first compound 0.8 µM): 0.188
relative viability (SW 1573; first compound 2.53 µM): 0.223
relative viability (SW 1573; first compound 8 µM): 0.198
relative viability (PC-14; first compound 0.253 µM): 0.181
relative viability (PC-14; first compound 2.53 µM): 0.15
relative viability (PC-14; first compound 8 µM): 0.111
relative viability (SK-LU-1; first compound 0.08 µM): 0.219
relative viability (SK-LU-1; first compound 0.253 µM): 0.197
relative viability (SK-LU-1; first compound 0.8 µM): 0.206
relative viability (SK-LU-1; first compound 2.53 µM): 0.183
relative viability (SK-LU-1; first compound 8 µM): 0.206
relative viability (NCI-H441; first compound 0.08 µM): 0.413
relative viability (NCI-H441; first compound 0.253 µM): 0.404
relative viability (NCI-H441; first compound 0.8 µM): 0.332
relative viability (NCI-H441; first compound 2.53 µM): 0.311
relative viability (NCI-H441; first compound 8 µM): 0.3
relative viability (NCI-H647; first compound 0.08 µM): 0.095
relative viability (NCI-H647; first compound 0.253 µM): 0.0882
relative viability (NCI-H647; first compound 0.8 µM): 0.196
relative viability (NCI-H647; first compound 2.53 µM): 0.096
relative viability (NCI-H647; first compound 8 µM): 0.109
